logD and MIC data for one compound are collected here from PMC10096180, “Half-Sandwich Type Platinum-Group Metal Complexes of C-Glucosaminyl Azines: Synthesis and Antineoplastic and Antimicrobial Activities” (Molecules, 2023).

Data set [1] in a line: Distribution coefficient (logD), n-octanol-PBS. Type of data set: physicochemical. The settings on record: n-octanol-PBS (pH = 7.4) system. On the procedure:
The logD values of the newly synthesized complexes were determined according to a procedure described in our previous publications. page 64: Ir-7b +1.17 Rh-7b +1.41 Ru-7c +1.31 Os-7c +1.59 Ir-7c +1.40 Rh-7c +1.13 Ru-7d +1.26 Os-7d +1.42 Ir-7d +1.30 Rh-7d +1.04 Ru-7e +2.22 Os-7e +2.21 Ir-7e +1.39 Rh-7e +1.66 *logD was determined in an n-octanol-PBS (pH = 7.4) system 64 (14 pictures or pasted objects on this page, not shown here)

Data set [2] concerns methicillin-resistant Staphylococcus aureus (MRSA) clinical isolates. The data set can be described thus: Broth microdilution MIC, clinical MRSA isolates. Type of data set: cell-based. To be noted: 24 h, 0.08–40 μM. Summed up:
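S. aureus and E. faecium clinical isolates (Debrecen, 2018–2020; MALDI-TOF-identified) tested by EUCAST broth microdilution in Mueller–Hinton broth at 5.0 × 10^5 CFU/mL across 0.08–40 μM (twofold). After 24 h at 37 °C, visually read; MIC is the lowest concentration giving ≥50% inhibition versus growth control. At least two runs in duplicate.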

Read-outs that look alike come from different tables or passages of the source.

As to `Cc1ccc(C(C)C)cc1.F[P-](F)(F)(F)(F)F.N[C@@H]1[C@@H](OCc2ccccc2)[C@H](OCc2ccccc2)[C@@H](COCc2ccccc2)O[C@H]1c1ccccn1.[Cl][Ru+]` [Ru-3a], the logD in data set [1] turned out to be 2.72. The minimal inhibitory concentration (MIC) in data set [2] (clinical isolate 20,426 MRSA, read-out: MIC 20,426 MRSA) is 5 µM; in data set [2] (clinical isolate 24,035 MRSA, read-out: MIC 24,035 MRSA) it was 5 µM; in data set [2] (clinical isolate 24,268 MRSA, read-out: MIC 24,268 MRSA) it was 5 µM; in data set [2] (clinical isolate 24,272 MRSA, read-out: MIC 24,272 MRSA), 5 µM; in data set [2] (clinical isolate 24,328 MRSA, read-out: MIC 24,328 MRSA), 5 µM; in data set [2] (clinical isolate 24,408 MRSA, read-out: MIC 24,408 MRSA), 5 µM.

Usually logD stands for lipophilicity at a set pH, counting ionised and neutral species. Higher therefore signals a more lipophilic compound. Usually MIC stands for the lowest concentration found to suppress growth.
